What is called EC50 is the concentration needed to bring the measured effect to its halfway point.

Here are results for 14 molecules from patent US7390826B2, “Inhibitors of animal cell motility and growth” (The Board of Trustees of The University of Illinois, priority 2002, dated 2008).

One experiment has as its system Xenopus laevis embryos. The experiment is described as follows: frog embryo morphogenesis assay (scoring of developmental defects). In kind it is in vivo. The note with it: Xenopus laevis, read-out: EC50 with respect to the defective phenotype at 72 hr following treatment. The source says:
In order to identify compounds that specifically perturb morphogenesis in the frog embryo, a suitable method for scoring embryos by characteristic defects was developed. A useful starting point was the “dorso-anterior index” (DAI). The DAI originally was constructed by adding new morphological characteristics to the older “index of axis deficiency” (S. R. Scharf et al., Dev. Biol., 99, 75-87 (1983)). The DAI is a scale of dorsoanterior development wherein embryos are assigned a score based on degree of dorsoanterior phenotype (K. R. Kao et al., Dev. Biol., 127, 64-77 (1988)). The scale encompasses a score of 0 (for the most axis-deficient or ventralized embryos) to 10 (for embryos with the most enhanced dorsoanterior structures), with a score of 5 signifying a normal embryo.
Because the DAI focuses only on dorsoanterior phenotypes, other categories were added to describe possible defects more comprehensively, with an emphasis on characteristics that are easily and unambiguously recognized in intact embryos, and that are diagnostic of possible effects on morphogenesis during gastrulation and neurulation. The most useful and readily scored categories that covered the most frequent deficiencies were: reduced anterior structures and microcephaly, delayed appearance or absence of eye pigmentation, overall shortness along the anteroposterior axis, bent axis, bent tail only, reduced posterior structures/tail, malformed or reduced fins, delayed or failed neural tube closure (neural fold fusion), abnormal pigmentation pattern, ventral swelling (edema), and delayed or abnormal visceral organogenesis and yolk resorption. In addition, blastopore closure, an earlier process that marks the completion of gastrulation, was observed.
In these tests, test compounds were added individually to wells each containing 4-8 embryos in 12-well plates. Embryos at stage 8.5-9, according to the classification of Nieuwkoop and Faber (P. I. Nieuwkoop et al., Normal Table of Xenopus laevis (Daudin). Amsterdam: North-Holland Publ.) (1967)), were used because these are late blastula stages before gastrulation begins at stage 10, which allowed focusing primarily on compounds that affect morphogenetic events in gastrulation and neurulation. These embryos, therefore, have undergone a midblastula transition at stage 8 (cleavage division 12) when zygotic transcription begins (J. Newport et al., Cell, 30, 675-686 (1982); J. Newport et al., Cell, 30, 687-696 (1982)) but have not yet started the morphogenetic movements of gastrulation.
Standard procedures were used in the care of animals, gamete preparation, fertilization of oocytes, and culture of embryos (B. K. Kay et al., Methods in Cell Biology, Volumn 36 (San Diego: Academic Press, Inc.) (1991)). In order to stimulate ovulation, female frogs were injected with 500 units of human chorionic gonadotropin (HCG). Eggs were squeezed from female frogs 12 hours later. Testes were removed from euthanized male frogs that had been primed with 50 units of HCG 4-6 hours earlier. The testes were stored at 4° C. in single strength Marc's Modified Ringer's solution with 50 μg/ml gentamycin and used for no more than 10 days. Small pieces of testes were macerated and spread over eggs for in vitro fertilization in Petri dishes. Fertilized eggs were placed in one-tenth strength Modified Barth's Saline (MBS) with 50 μg/ml gentamycin at constant temperature (19° C.) in a temperature-controlled incubator and development allowed to proceed under these conditions. Embryos were dejellied by briefly swirling them in a solution of 2% (w/v) L-cysteine, pH 8.0. The embryos then were rinsed extensively with one-tenth strength MBS to wash out the cysteine. Experiments were started within an hour of dejellying the embryos.
Experiments were carried out in 12-well flat-bottom polystyrene plates with 4-8 embryos per well in 1.0 ml of one-tenth strength MBS with 50 μg/ml gentamycin at 19° C. […]

The test system of experiment [1] is Madin-Darby canine kidney (MDCK) cell monolayers. In words: scrape-wound closure assay in MDCK cell monolayers. The note with it: even at the highest concentration tested (500 μM). In kind it is cell-based. The source says: A method of determining the ability of a compound to inhibit or accelerate cell motility is a scrape-wound closure assay using cultured mammalian epithelial cell monolayers. Mechanical scraping of the epithelial monolayer induces cell sheet migration into the resulting gap, a phenomenon characteristic of wounded epithelia and mechanistically related to normal epithelial movements during embryonic morphogenesis (A. Jacinto et al., Nat. Cell Biol, 3, E117 (2001)). Epithelial cell sheet migration in this method proceeds by a Rac- and phosphoinositide-dependent cell crawling mechanism resembling the motility of other animal cells that move as individuals rather than as cell sheets (G. Fenteany et al., Curr. Biol., 10, 831 (2000)).
Wound closure in MDCK cell monolayers primarily involves cell spreading and motility rather than proliferation based on observations and treatments that block cell growth without inhibiting closure. However, after closure is complete and the gap is covered, cell division is observed in the former wound area, presumably as part of a homeostatic mechanism to regain the original cell density (M. F. Olson et al., Science, 269, 1270 (1995)). Wound closure involves Rac- and phosphoinositide-dependent actin polymerization and protrusion-driven cell crawling behavior, where force generation for movement is distributed from the wound margin to several rows of cells behind the margin. Accordingly, this method is excellent for determining whether a compound affects cell motility.
Cell culture conditions: Madin-Darby canine kidney (MDCK) cells (American Type Culture Collection cell line CCL-34) were cultured in Minimum Essential Medium (with Earle's balanced salts, non-essential amino acids, L-glutamine and sodium pyruvate) supplemented with 10% newborn calf serum at 37° C. and 5% carbon dioxide (CO2). Main cultures were grown in either […] tissue culture flasks with medium changes every two days. When cultures were about 75% confluent, cells were passaged by rinsing twice with single strength phosphate buffered saline (PBS) and treating with a solution of 0.05% (w/v) trypsin/0.02% (w/v) ethylenediaminetetraacetic acid (EDTA) in PBS to detach cells from the flasks. After cells were detached, an equal volume of serum-containing medium was added to inhibit the trypsin and cell density was determined using a hemacytometer. Cells were replated following dilution in fresh medium on new tissue culture flasks for continued culture and multiwell tissue culture plates for experiments. No culture used exceeded 15 passages. Experimental cultures were grown in 12-, 24-, 48-, or 96-well tissue culture plates with medium changes every two days.
Wound closure assay and compound screening: MDCK cells were plated on multiwell tissue culture plates and cultured at 37° C. and 5% CO2 with medium changes every two days until confluent. When the cultures reached confluence, medium was changed again and all experimental treatments were begun a day later. Compounds were solubilized in dimethyl sulfoxide (DMSO) and added with fresh-medium to cell cultures at initial screening concentrations of 10 and 100 μM. Controls consisted of parallel wells to-which DMSO solvent carrier alone was added at the same concentration as that added with experimental treatments (not exceeding 0.1% (v/v)). DMSO alone at this concentration had no detectable effect on the cells. Monolayers were scraped 30 min later with a micropipette and ultramicro tips, allowing small wounds of consistent size to be generated. Progress of wound closure was examined at set time intervals following wounding by microscope, and inhibitory or acceleratory effects on wound closure relative to parallel controls noted. […] Digital images of the wounded monolayers were taken every 2 hours for 18 hours, and then at 30, 36, 54, 60, and 72 hours following wounding. The number of lamellipodia at the wound margin was also counted at these times. […]

In another experiment the test system is MDCK cells. In words: MDCK cell proliferation. In kind it is cell-based, canine. On the procedure: In FIG. 2A, cells were plated at low cell density (1×10^4 cells/mL) and allowed to attach and begin to grow for 48 hours prior to the start of experiment. The treatments were 0.1% DMSO (control, n=9 cultures), 50 μM compound 1 (n=8), or 50 μM compound 11 (n=7). Reported values are mean with SEM of the percent increase in cell number from 0 to 48 hours after addition of compound 1.
The values were mean with SEM of the percent increase in cell number another 48 hours after replacement of medium containing 50 μM compound 1 (n=8 cultures) or 0.1% DMSO (n=9) with fresh medium containing 0.1% DMSO.
MDCK cell proliferation: MDCK cells were plated on multiwell tissue culture plates at low density ([…]). Cells were allowed to attach and begin to grow for 48 hours before the start of the experiment. Fresh medium with or without compound was then added, and cells were incubated for 48 hours. At both 0 and 48 hours, some of the parallel wells for control and compound treatments were washed twice with PBS and treated with trypsin/EDTA solution to detach the cells. An equal volume of medium was added, cells were collected and counted using a hemacytometer. For reversibility, some of the parallel cultures for both control and compound treatments were grown another 48 hours after washing twice with PBS and replacing medium with fresh compound-free medium. At both the time of washing out and 48 hours later, some of the parallel wells for control and compound treatments were washed twice with PBS, detached from the plates with trypsin/EDTA solution, and the number of cells was counted.

Another experiment deals with MDCK cell wounds. In words: lamellipodial density at the margin of MDCK cell wounds. Further details: key to Lamellipodial Density: lamellipodial protrusions per unit margin perimeter length. Format: cell-based, canine. The note with it: 50 μM, mean ± SEM, * p<0.05 vs control. As to the method: Lamellipodial protrusion is known to drive most forms of animal cell crawling. At any given time in the migrating cell sheet, some cells are extending lamellipodia at the margin while others are not. […] Therefore, inhibition of cell sheet migration by compound 1 at least in part is attributed to reduced formation of lamellipodia at the would margin.
Lamellipodial density at the margin of MDCK cell wounds was determined under the following treatment conditions: 0.1% DMSO (control, n=25 wounded monolayers), 50 μM compound 1 (n=19), or 50 μM compound 11 (n=10). Lamellipodial density is the number of lamellipodial protrusions detected at the wound margin until closure for the times indicated divided by margin perimeter length. Values are mean±SEM.
Wound closure assay and compound screening: MDCK cells were plated on multiwell tissue culture plates and cultured at 37° C. and 5% CO2 with medium changes every two days until confluent. When the cultures reached confluence, medium was changed again and all experimental treatments were begun a day later. Compounds were solubilized in dimethyl sulfoxide (DMSO) and added with fresh-medium to cell cultures at initial screening concentrations of 10 and 100 μM. Controls consisted of parallel wells to-which DMSO solvent carrier alone was added at the same concentration as that added with experimental treatments (not exceeding 0.1% (v/v)). DMSO alone at this concentration had no detectable effect on the cells. Monolayers were scraped 30 min later with a micropipette and ultramicro tips, allowing small wounds of consistent size to be generated. Progress of wound closure was examined at set time intervals following wounding by microscope, and inhibitory or acceleratory effects on wound closure relative to parallel controls noted. […] Digital images of the wounded monolayers were taken every 2 hours for 18 hours, and then at 30, 36, 54, 60, and 72 hours following wounding. The number of lamellipodia at the wound margin was also counted at these times.

The mark [2] stands for this setting: 72 hr after treatment, dose-response, 5 concentrations.

Structures are written as SMILES. Where two headings read alike, the source gives them in different places.

Take `C/C=C/C(=O)N1CCOC1=O` [Compound 6]: in the experiment with Xenopus laevis embryos (72 h), the EC50 was found to be 39.1 µM.

With `CCCC(=O)N1C(=O)OC[C@@H]1Cc1ccccc1` [Compound 11], the “bioactivity in wound closure assay” value in experiment [1] is recorded as “no statistically significant bioactivity”. Moreover, the “inhibition of MDCK cell proliferation (percent increase in cell number)” value with MDCK cells (50 μM, 0 to 48 hours) is “not”. Further, the “bioactivity in cell proliferation assay” value in the experiment with MDCK cells (even at the highest concentration tested (500 μM)) was “no statistically significant bioactivity”. In addition, the “Lamellipodial Density” value amounted to 0.563 ± 0.148 in the experiment with MDCK cell wounds (2 hours); 1.139 ± 0.270 in the experiment on MDCK cell wounds (4 hours); 1.289 ± 0.276 in the experiment with MDCK cell wounds (6 hours); 1.196 ± 0.312 in the experiment on MDCK cell wounds (8 hours); 1.609 ± 0.357 in the experiment on MDCK cell wounds (10 hours); 1.368 ± 0.309 in the experiment with MDCK cell wounds (12 hours).

On to `CC/C=C/C(=O)N1C(=O)OC[C@@H]1Cc1ccccc1` [Compound 13], for which the EC50 in the experiment with Xenopus laevis embryos (setting [2]) was 54.6 µM.

Consider `C/C=C/C(=O)N1C(=O)OC[C@@H]1C(C)C` [Compound 15], for which the EC50 with Xenopus laevis embryos (72 h) came to 25.9 µM.

Regarding `C/C=C\C(=O)N1C(=O)OC[C@@H]1Cc1ccccc1` [Compound 17], the EC50 with Xenopus laevis embryos (72 h) was found to be 19.1 µM.

`CCCCC/C=C/C(=O)N1C(=O)OC[C@@H]1Cc1ccccc1` [Compound 23]: the EC50 in the experiment on Xenopus laevis embryos (setting [2]) amounted to 58.1 µM.

Turning to `C/C=C/C(=O)N1C(=O)O[C@@H](c2ccccc2)[C@@H]1C` [Compound 25], the EC50 with Xenopus laevis embryos (72 h) came to 13.9 µM.

Consider `C/C=C/C(=O)N1C(=O)O[C@H](c2ccccc2)[C@H]1C` [Compound 26], for which, in the experiment with Xenopus laevis embryos (72 h), the EC50 was found to be 12.7 µM.

Turning to `C/C=C/C(=O)N1C(=O)OC[C@@H]1c1ccccc1` [Compound 30], in the experiment on Xenopus laevis embryos (72 h), the EC50 amounted to 10.1 µM.

Consider `CC#CC(=O)N1C(=O)OC[C@@H]1Cc1ccccc1` [Compound 31], for which, in the experiment on Xenopus laevis embryos (setting [2]), the EC50 was 5.9 µM.

In the case of `O=C(/C=C/c1cccc(F)c1)N1C(=O)OC[C@@H]1Cc1ccccc1` [Compound 33], the EC50 in the experiment with Xenopus laevis embryos (setting [2]) amounted to 47.6 µM.

As to `C/C=C/C(=O)N1C(=O)OC[C@H]1Cc1ccccc1` [Compound 45], the EC50 in the experiment on Xenopus laevis embryos (72 h) turned out to be 8.9 µM.

Turning to `C=CC(=O)N1C(=O)OC[C@@H]1Cc1ccccc1` [Compound 52], the EC50 with Xenopus laevis embryos (72 h) is 6.1 µM.

`O=C(/C=C/c1cccc(C(F)(F)F)c1)N1C(=O)OC[C@@H]1Cc1ccccc1` [Compound 54]: the EC50 in the experiment with Xenopus laevis embryos (setting [2]) was 30.4 µM.
